From patent US8268814B2, “Substituted sulfonamide compounds” (Gruenenthal GmbH, priority 2008, dated 2012)

Key:
[1] = molecular target: T1, human B1R receptor (hB1R) (Homo sapiens, UniProt P46663); test: Functional FLIPR Ca2+ assay on the bradykinin 1 receptor, human (hB1R CHO K1 cells); format: cell-based; conditions: test substance 10 μM; CHO K1 cells transfected with human B1R gene; agonist Lys-Des-Arg9-bradykinin at EC80; % inhibition compared with maximum achievable inhibition; read-out: B1R antagonism, human (10 μM] % inhibition
T1 construct: expressed in transfected cells; host or cells: CHO K1 cells (Chinese hamster ovary), stably transfected
T1 sequence (P46663 1-353): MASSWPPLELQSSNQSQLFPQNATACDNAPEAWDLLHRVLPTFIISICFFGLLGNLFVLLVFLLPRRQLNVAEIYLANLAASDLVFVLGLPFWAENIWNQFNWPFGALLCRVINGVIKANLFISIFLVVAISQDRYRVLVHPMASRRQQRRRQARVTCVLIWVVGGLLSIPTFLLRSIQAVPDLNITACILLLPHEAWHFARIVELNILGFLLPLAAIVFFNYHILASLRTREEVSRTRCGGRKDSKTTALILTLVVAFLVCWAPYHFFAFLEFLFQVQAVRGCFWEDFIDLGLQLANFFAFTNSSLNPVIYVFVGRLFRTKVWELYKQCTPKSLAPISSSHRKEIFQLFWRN
Method: The agonistic or antagonistic action of substances can be quantified on the bradykinin 1 receptor (B1R) of the human and rat species with ectopically expressing cell lines (CHO K1 cells) and with the aid of a Ca^2+-sensitive dyestuff (Fluo-4) in a fluorescent imaging plate reader (FLIPR). The figure in % activation is based on the Ca^2+ signal after addition of Lys-Des-Arg^9-bradykinin (0.5 nM) or Des-Arg^9-bradykinin (100 nM). Antagonists lead to a suppression of the Ca^2+ inflow after addition of the agonist. % inhibition compared with the maximum achievable inhibition is stated.
The agonistic or antagonistic action of substances can be determined on the bradykinin 1 receptor (B1R) of the human and rat species with the following assay. In accordance with this assay, the Ca^2+ inflow through the channel is quantified with the aid of a Ca^2+-sensitive dyestuff (type Fluo-4, Molecular Probes Europe BV, Leiden, Holland) in a fluorescent imaging plate reader (FLIPR, Molecular Devices, Sunnyvale, USA).
Chinese hamster ovary cells (CHO K1 cells) transfected stably with the human B1R gene (hB1R cells) or the B1R gene of the rat (rB1R cells) are used. For functional studies, these cells are plated out on black 96-well plates with a clear base (BD Biosciences, Heidelberg, Germany or Greiner, Frickenhausen, Germany) in a density of 20,000-35,000 cells/well. The cells are left overnight at 37° C. and 5% CO2 in culture medium (hB1R cells: Nutrient Mixture Ham's F12, Gibco Invitrogen GmbH, Karlsruhe, Germany or DMEM, Sigma-Aldrich, Taufkirchen, Germany; rB1R cells: D-MEM/F12, Gibco Invitrogen GmbH, Karlsruhe, Germany) with 10 vol. % FBS (foetal bovine serum, Gibco Invitrogen GmbH, Karlsruhe, Germany or PAN Biotech GmbH, Aidenbach, Germany). On the following day, the cells are loaded for 60 min at 37° C. with 2.13 μM Fluo-4 (Molecular Probes Europe BV, Leiden, Holland) in HBSS buffer (Hank's buffered saline solution, Gibco Invitrogen GmbH, Karlsruhe, Germany) with 2.5 mM probenecid (Sigma-Aldrich, Taufkirchen, Germany) and 10 mM HEPES (Sigma-Aldrich, Taufkirchen, Germany). The plates are then washed 2× with HBSS buffer, and HBSS buffer which additionally contains 0.1% BSA (bovine serum albumin; Sigma-Aldrich, Taufkirchen, Germany), 5.6 mM glucose and 0.05% gelatine (Merck KgaA, Darmstadt, Germany) is added. After a further incubation of 20 minutes at room temperature, the plates are inserted into the FLIPR for the Ca^2+ measurement.
Alternatively, the plates are washed with buffer A (15 mM HEPES, 80 mM NaCl, 5 mM KCl, 1.2 mM CaCl2, 0.7 mM MgSO4, 2 g/l glucose, 2.5 mM probenecid), buffer A is added and the plates are loaded with 2.5 μM Fluo-4 and 0.025% Pluronic F127 (Sigma-Aldrich, Taufkirchen, Germany). Thereafter, the cells are washed 2× with buffer A and incubated for 30 minutes with buffer A, which additionally contains 0.05% BSA and 0.05% gelatine, at room temperature and thereafter inserted into the FLIPR for the Ca^2+ measurement. The Ca^2+-dependent fluorescence is measured here before and after addition of substances (λex=488 nm, λem=540 nm). Quantification is by measurement of the highest fluorescence intensity (FC, fluorescence counts) over time.
The FLIPR protocol consists of 2 additions of substance. Test substances (10 μM) are first pipetted on to the cells and the Ca^2+ inflow is compared with the control (hB1R: Lys-Des-Arg^9-bradykinin >=50 nM; rB1R: Des-Arg^9-bradykinin 10 μM). This gives the figure in % activation based on the Ca^2+ signal after addition of Lys-Des-Arg^9-bradykinin (>=50 nM) or Des-Arg^9-bradykinin (10 μM). After incubation for 10-20 minutes, Lys-Des-Arg^9-bradykinin (hB1R) or Des-Arg^9-bradykinin (rB1R) in the concentration of the EC80 is applied and the inflow of Ca^2+ is likewise determined. Antagonists lead to a suppression of the Ca^2+ inflow. % inhibition compared with the maximum achievable inhibition is calculated. In order to determine the IC50 value, the substances are added in various concentrations. […]

[2] = molecular target: T2, B1R receptor of the rat (rB1R) (Rattus norvegicus, UniProt P97583); test: Functional FLIPR Ca2+ assay on the bradykinin 1 receptor, rat (rB1R CHO K1 cells); format: cell-based; conditions: test substance 10 μM; CHO K1 cells transfected with rat B1R gene; agonist Des-Arg9-bradykinin at EC80; % inhibition compared with maximum achievable inhibition; read-out: B1R antagonism, rat [10 μM] % inhibition
T2 construct: expressed in transfected cells; host or cells: CHO K1 cells (Chinese hamster ovary), stably transfected
T2 sequence (P97583 1-337): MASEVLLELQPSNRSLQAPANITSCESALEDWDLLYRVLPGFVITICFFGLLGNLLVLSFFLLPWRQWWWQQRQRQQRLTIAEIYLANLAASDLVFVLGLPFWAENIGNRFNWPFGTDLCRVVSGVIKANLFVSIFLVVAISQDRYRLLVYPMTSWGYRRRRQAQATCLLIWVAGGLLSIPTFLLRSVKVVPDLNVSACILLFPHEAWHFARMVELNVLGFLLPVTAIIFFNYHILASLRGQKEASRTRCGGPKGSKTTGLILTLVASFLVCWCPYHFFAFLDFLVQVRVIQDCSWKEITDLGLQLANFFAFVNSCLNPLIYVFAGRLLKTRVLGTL
In short: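 Stably transfected CHO K1 cells expressing human or rat B1R, Fluo-4-loaded, Ca2+ influx read by FLIPR (peak fluorescence). Compounds (10 μM for % activation) preincubated 10-20 min, then EC80 agonist added: Lys-Des-Arg9-bradykinin for human, Des-Arg9-bradykinin for rat; % inhibition versus maximal inhibition, IC50 from concentration series.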

SMILES	inhibition at 10 µM [1] [%]	inhibition at 10 µM [2] [%]
CCC1c2ccsc2CCN1C(=O)CCCC1CCCCN1S(=O)(=O)c1c(C)cc(OC)cc1C (stereo not shown) [Example 23, 1-(4-Ethyl-6,7-dihydrothieno[3,2-c]pyridin-5(4H)-yl)-4-(1-(4-methoxy-2,6-dimethylphenylsulfonyl)piperidin-2-yl)butan-1-one]	91	105
COc1cc(C)c(S(=O)(=O)N2CCCCC2COCC(=O)N2CCc3onc(C(=O)N4CCCCC4)c3C2)c(C)c1 (stereo not shown) [Example 14, 2-((1-(4-methoxy-2,6-dimethylphenylsulfonyl)piperidin-2-yl)methoxy)-1-(3-(piperidin-1-carbonyl)-6,7-dihydroisoxazolo[4,5-c]pyridin-5(4H)-yl)ethanone]	85	99
Cc1cc(S(=O)(=O)N2CCCCC2CCC(=O)N2CCc3sccc3C2c2ccccc2C)c(C)cc1Cl (stereo not shown) [Example 11, 3-(1-(4-chloro-2,5-dimethylphenylsulfonyl)piperidin-2-yl)-1-(4-o-tolyl-6,7-dihydrothieno[3,2-c]pyridin-5(4H)-yl)propan-1-one]	7	60
Cc1cccc(Cl)c1S(=O)(=O)N(CCOCC(=O)N1CCc2sc(CN3CCC3)cc2C1)C1CC1 [Example 56, N-[2-[2-[2-(Azetidin-1-yl-methyl)-4,5,6,7-tetrahydro-thieno[3,2-c]pyridin-5-yl]-2-oxo-ethoxy]-ethyl]-2-chloro-N-cyclopropyl-6-methyl-benzenesulfonic acid amide]	100	105
COc1cc(C)c(S(=O)(=O)N2CCCCC2COCC(=O)N2CCc3onc(CN(C)C)c3C2)c(C)c1 (stereo not shown) [Example 31, 1-(3-((dimethylamino)methyl)-6,7-dihydroisoxazolo[4,5-c]pyridin-5(4H)-yl)-2-((1-(4-methoxy-2,6-dimethylphenylsulfonyl)piperidin-2-yl)methoxy)ethanone]	100	105
O=C(CC1CCCCN1S(=O)(=O)c1cccc(C(F)(F)F)c1)N1CCc2sccc2C1c1ccc(F)cc1 (stereo not shown) [Example 19, 1-(4-(4-fluorophenyl)-6,7-dihydrothieno[3,2-c]pyridin-5(4H)-yl)-2-(1-(3-(trifluoromethyl)phenylsulfonyl)piperidin-2-yl)ethanone]	35	83
COc1cc(C)c(S(=O)(=O)N2CCCCC2CCC(=O)N2CCc3nc(-c4ccncc4)sc3C2)c(C)c1 (stereo not shown) [Example 52, 3-(1-(4-methoxy-2,6-dimethylphenylsulfonyl)piperidin-2-yl)-1-(2-(pyridin-4-yl)-6,7-dihydrothiazolo[5,4-c]pyridin-5(4H)-yl)propan-1-one]	76	95
CCC1c2ccsc2CCN1C(=O)COCCN(C)S(=O)(=O)c1c(C)cc(OC)cc1C (stereo not shown) [Example 18, N-(2-(2-(4-Ethyl-6,7-dihydrothieno[3,2-c]pyridin-5(4H)-yl)-2-oxoethoxy)ethyl)-4-methoxy-N,2,6-trimethyl benzenesulfonamide]	99	109
COc1cc(C)c(S(=O)(=O)N2c3ccccc3CC[C@H]2COCC(=O)N2CCc3onc(-c4ccncc4)c3C2)c(C)c1 [Example 125, 2-[[(2S)-1-[(4-Methoxy-2,6-dimethyl-phenyl)sulfonyl]-1,2,3,4-tetrahydro-quinolin-2-yl]-methoxy]-1-(3-pyridin-4-yl-4,5,6,7-tetrahydro-isoxazolo[4,5-c]pyridin-5-yl)-ethanone]	75	102
Cc1cccc(C2c3ccsc3CCN2C(=O)CCC2CCCCN2S(=O)(=O)c2cc(C)c(Cl)cc2C)c1 (stereo not shown) [Example 10, 3-(1-(4-chloro-2,5-dimethylphenylsulfonyl)piperidin-2-yl)-1-(4-m-tolyl-6,7-dihydrothieno[3,2-c]pyridin-5(4H)-yl)propan-1-one]	78	105
Cc1cc(S(=O)(=O)N2CCCCC2CCC(=O)N2CCc3onc(CN4CCCCC4)c3C2)c(C)cc1Cl (stereo not shown) [Example 06, 3-(1-(4-chloro-2,5-dimethylphenylsulfonyl)piperidin-2-yl)-1-(3-(piperidin-1-ylmethyl)-6,7-dihydroisoxazolo[4,5-c]pyridin-5(4H)-yl)propan-1-one]	93	57
COc1cc(C)c(S(=O)(=O)N2CCCCC2COCC(=O)N2CCc3onc(-c4ccc(Cl)cc4)c3C2)c(C)c1 (stereo not shown) [Example 24, 1-(3-(4-chlorophenyl)-6,7-dihydroisoxazolo[4,5-c]pyridin-5(4H)-yl)-2-((1-(4-methoxy-2,6-dimethylphenylsulfonyl)piperidin-2-yl)methoxy)ethanone]	73	100
COc1cc(C)c(S(=O)(=O)N2CCCCC2COCC(=O)N2CCc3sc(CN4CCCCC4)cc3C2)c(C)c1 (stereo not shown) [Example 27, 2-((1-(4-Methoxy-2,6-dimethylphenylsulfonyl)piperidin-2-yl)methoxy)-1-(2-(piperidin-1-ylmethyl)-6,7-dihydrothieno[3,2-c]pyridin-5(4H)-yl)ethanone]	100	106
COc1cc(C)c(S(=O)(=O)N2CCCCC2COCC(=O)N2CCc3sccc3C2c2ccccc2)c(C)c1 (stereo not shown) [Example 15, 2-((1-(4-methoxy-2,6-dimethylphenylsulfonyl)piperidin-2-yl)methoxy)-1-(4-phenyl-6,7-dihydrothieno[3,2-c]pyridin-5(4H)-yl)ethanone]	69	98
